In patent publication US12655096B2, “Crystalline polymorphs of Rigosertib sodium” (ASSIA CHEMICAL INDUSTRIES LTD., priority 2018, dated 2026):
One block for each compound: values may come before it.

How the values were obtained:
[1] = as described in U.S. Pat. No. 8,476,320; cited from earlier work
[2] = Solid state stability on storage; type: physicochemical
[3] = Hygroscopicity (water absorption on exposure to relative humidity); type: physicochemical
Source text: As used herein the term non-hygroscopic in relation to crystalline Rigosertib Sodium refers to less than 1.0% (w/w) absorption of water, by the crystalline Rigosertib Sodium as determined, for example, by TGA when exposed to 60% RH for 7 days at RT, or preferably 80% RH for 7 days at RT.

SMILES: COc1cc(OC)c(/C=C/S(=O)(=O)Cc2ccc(OC)c(NCC(=O)O)c2)c(OC)c1 [Amorphous Rigosertib Sodium, Rigosertib Sodium]
hygroscopicity (water absorption) [1]: readily absorbs water after complete drying

stability of the solid state form [2]: stable
hygroscopicity ([3]; non-hygroscopic defined as less than 1.0% (w/w) absorption of water): non-hygroscopic
hygroscopicity at relative humidity ([3]; up to about 80% relative humidity, about 7 days, 25° C.): substantially non-hygroscopic
SMILES: COc1cc(OC)c(/C=C/S(=O)(=O)Cc2ccc(OC)c(NCC(=O)O)c2)c(OC)c1 [Rigosertib Sodium Form A, Rigosertib Sodium]

time for which the form is stable ([2]; at RT): at least 4 M
SMILES: COc1cc(OC)c(/C=C/S(=O)(=O)Cc2ccc(OC)c(NCC(=O)O)c2)c(OC)c1 [Rigosertib Sodium Form E, Rigosertib Sodium]
